Results as given in US20080267948A1, “Croos-B Structure Binding Compounds” (priority 2005, published 2008).

T1: factor XII (Homo sapiens, UniProt P00748)
T1 sequence (P00748 20-615): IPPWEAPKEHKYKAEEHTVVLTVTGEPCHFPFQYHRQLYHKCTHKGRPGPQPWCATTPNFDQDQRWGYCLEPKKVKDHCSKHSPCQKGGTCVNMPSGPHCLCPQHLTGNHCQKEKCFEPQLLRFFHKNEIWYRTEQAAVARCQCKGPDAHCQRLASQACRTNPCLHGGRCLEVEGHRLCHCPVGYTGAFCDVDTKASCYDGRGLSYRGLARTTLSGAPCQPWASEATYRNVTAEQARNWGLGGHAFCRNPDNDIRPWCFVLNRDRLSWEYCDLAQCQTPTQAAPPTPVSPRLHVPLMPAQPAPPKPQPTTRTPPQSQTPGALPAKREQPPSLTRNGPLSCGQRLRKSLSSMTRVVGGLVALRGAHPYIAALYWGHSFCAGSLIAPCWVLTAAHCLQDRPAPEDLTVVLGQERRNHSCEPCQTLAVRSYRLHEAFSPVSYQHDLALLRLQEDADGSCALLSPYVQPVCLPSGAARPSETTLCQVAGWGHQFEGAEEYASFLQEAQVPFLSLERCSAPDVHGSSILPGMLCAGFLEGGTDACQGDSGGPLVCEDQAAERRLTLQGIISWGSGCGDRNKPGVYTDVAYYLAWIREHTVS


Tests used:
amyloid γ-globulins = assay: Inhibition ELISA of monoclonal 7H2H2 binding to immobilized amyloid γ-globulins; design: species or system human
Protocol: When binding of a monoclonal antibody to an aggregate with amyloid-like properties was confirmed, the influence of Congo red on this interaction was tested as follows. Amyloid γ-globulins were coated onto a high-binding plate (Greiner Microlon, Bio-One GmbH, Frickenhausen, Germany), blocked with Roche blocking reagent, and overlayed with 10 times diluted hybridoma cell culture medium with a concentration series of Congo red. In addition, the inhibitory effect of compounds with cross-(structure conformation on binding of a monoclonal antibody to immobilized cross-β structure conformation comprising antigens was tested with an ELISA set-up. For this purpose, a limiting amount of antigen, i.e. 0.5 μg ml^−1 amyloid γ-globulins, was immobilized onto a Greiner high-binding plate. It was determined that 80 times diluted hybridoma cell culture supernatant contains an amount of antibody that results in less than maximal signal when used in ELISAs with immobilized proteins with cross-β structure conformation (not shown). Now, concentration series of freshly dissolved-, amyloid-, acid-denatured- and base-denatured γ-globulins at 0.1, 1, 10 and 100 μg ml^−1 was added to the 80 times diluted hybridoma cell culture supernatant, and used to overlay the immobilized amyloid γ-globulins. The amount of bound antibody was determined with RAMPO. […]

[1] = system: amyloid-β and glycated albumin; assay: ELISA binding of tPA to immobilized amyloid-β and glycated albumin with Congo red or ThT; conditions: concentration series of dye
Protocol: After 5 washes with wash buffer followed by two washes with PBS, binding of antibodies was assessed. […] Triplicates were averaged and standard deviations calculated.

[2] = biological target: T2, Hb-AGE (glucose-6-phosphate modified human haemoglobin) (Homo sapiens, UniProt P68871+P69905); assay: ELISA binding of tPA to immobilized Hb-AGE, compounds co-incubated with tPA; conditions: dye included in the tPA solution
T2 construct: purchased Sigma-Aldrich H7379
T2 sequence (P69905 2-142 limits assumed): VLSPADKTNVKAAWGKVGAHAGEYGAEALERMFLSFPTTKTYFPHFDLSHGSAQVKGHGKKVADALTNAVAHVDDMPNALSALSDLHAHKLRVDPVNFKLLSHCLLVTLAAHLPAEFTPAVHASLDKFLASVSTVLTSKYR
T2 sequence (P68871 2-147 limits assumed): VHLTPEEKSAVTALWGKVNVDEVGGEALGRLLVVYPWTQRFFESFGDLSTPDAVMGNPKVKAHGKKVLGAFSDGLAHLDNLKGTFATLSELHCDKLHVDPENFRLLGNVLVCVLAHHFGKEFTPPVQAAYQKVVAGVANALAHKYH
Protocol: The small compound library is depicted in Tables 4-5. […] Binding experiments were performed in single wells per compound, in a duplicate experiment. Binding data obtained with this duplicate experiment was averaged.
• 1. […] Coat buffer in control wells. • 2. wash three times with wash buffer • 3. Block all wells with 300 μl 0.5*recommended concentration Roche blocking reagent for 30 minutes at room temperature, with agitation • 4. wash twice • 5. […] Incubate for 30 minutes at room temperature, with agitation • 7. wash five times with TBS/0.1% Tween20 • 8. […] Incubate for 30 minutes at room temperature, with agitation • 10. wash five times with TBS/0.1% Tween20 • 11. Fill wells with 3000× diluted horse raddish peroxidase-labeled polyclonal rabbit anti-mouse antibody (RAMPO, DAKOCytomation) • 12. Incubate for 20 minutes at room temperature, with agitation • 13. Wash five times with TBS/0.1% Tween20 • 14. Wash twice with PBS • 15. Stain with 100 μl TMB, stop with 50 μl 10% H2SO4 • 16. Read absorbance at 450 nm

[3] = biological target: T3, glycated haemoglobin (Hb-AGE) (Homo sapiens, UniProt P68871+P69905); assay: ELISA binding of IgIV to immobilized Hb-AGE and inhibition studies; conditions: 15 μg/ml IgIV, concentration series of competitor
T3 construct: purchased Sigma-Aldrich H7379
T3 sequence (P69905 2-142 limits assumed): as the sequence (P69905 2-142 limits assumed) above
T3 sequence (P68871 2-147 limits assumed): as the sequence (P68871 2-147 limits assumed) above
Protocol: Binding of IgIV was determined using an enzyme linked immunosorbent assay (ELISA) set-up. For this purpose 50 μl/well of potential ligands at indicated concentrations or coat buffer only for control and background measurement purposes, were coated overnight at 4° C., with motion, in 50 mM NaHCO3 pH 9.6. Glycated albumin and Hb (BSA-AGE and Hb-AGE), control BSA and control Hb were coated at 5 μg/ml. The BSA and Hb controls were prepared freshly by dissolving lyophilized proteins at 1 mg/ml in PBS upon resuspending by pipetting, followed by a 30′ period at the roller bank, at room temperature. The protein solutions were centrifuged for 10′ at 16,000*g and diluted in coat buffer. Coat controls were performed with anti-glycated protein antibody, anti-albumin antibody, anti-Hb antibody. The alkaline phosphatase-conjugated anti-human Ig antibodies were controlled by coating the IgIV's and overlaying them the secondary antibodies. After coating the plates were washed twice with 50 mM Tris-HCl pH 7.3, 150 mM NaCl, 0.1% v/v Tween20, and blocked with 175 μl/well Blocking reagent (Roche Diagnostics, Almere, The Netherlands; catalogue number 11112589001), for 1 h at room temperature, with motion. Plates were washed twice and incubated in triplicate with indicated antibodies dilution series, plasma dilution series or controls, including binding buffer only, in the absence or presence of putative inhibitors, in binding buffer; PBS/0.1% v/v Tween20, at 50 μl/well, for 1 h at room temperature, with constant motion. After four wash cycles, secondary antibodies were added to the wells, 50 μl/well, for 45′ at room temperature, with motion. RAMPO and SWARPO were used at 2000 times dilution, goat anti-human IgG antibodies were diluted 3000 times, goat anti-human IgM antibodies were diluted 1000 times. After 5 washes with wash buffer followed by two washes with PBS, binding of antibodies was assessed. […] After 5′ absorbance was read at 405 nm. […] After 5′ absorbance was read at 490 nm. […] Triplicates were averaged and standard deviations calculated. […]

[4] = system: anti-β2GPI auto-antibodies from antiphospholipid syndrome patients; assay: Interference with binding of anti-β2GPI autoantibodies to immobilized β2GPI; design: species or system human; conditions: concentration series of β2GPI in solution
Protocol: β2GPI by recombinant β2GPI and not by plasma derived β2GPI When plasma derived β2GPI is coated onto hydrophilic ELISA plates, anti-β2GPI auto-antibodies isolated from plasma of antiphospholipid syndrome autoimmune patients can bind^18. To study the influence of coincubations of the coated β2GPI with the antibodies together with plasma β2GPI or recombinant β2GPI, concentration series of β2GPI were added to the patient antibodies. Subsequently, binding of the antibodies to coated β2GPI was determined.

tPA = tPA (Homo sapiens, UniProt P00750); assay: ELISA binding of β2GPI to immobilized tPA
Sequence of tPA (P00750 36-562): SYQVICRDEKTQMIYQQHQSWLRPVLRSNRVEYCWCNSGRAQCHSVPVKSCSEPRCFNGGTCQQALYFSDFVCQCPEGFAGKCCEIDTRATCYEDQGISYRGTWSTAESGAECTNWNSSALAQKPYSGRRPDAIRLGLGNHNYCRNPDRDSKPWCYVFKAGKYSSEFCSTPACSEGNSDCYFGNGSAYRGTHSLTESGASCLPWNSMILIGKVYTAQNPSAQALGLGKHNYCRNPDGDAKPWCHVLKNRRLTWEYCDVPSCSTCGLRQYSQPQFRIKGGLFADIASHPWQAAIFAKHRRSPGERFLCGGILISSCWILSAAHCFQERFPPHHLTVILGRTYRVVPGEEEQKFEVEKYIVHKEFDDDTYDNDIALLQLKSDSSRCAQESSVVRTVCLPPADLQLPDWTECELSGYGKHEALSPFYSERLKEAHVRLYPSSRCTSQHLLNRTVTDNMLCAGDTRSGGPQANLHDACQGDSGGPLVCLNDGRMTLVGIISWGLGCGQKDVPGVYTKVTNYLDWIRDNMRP
Protocol: (§1) Binding of β2GPI was assessed with monoclonal antibody 2B2^17.

factor XII = biological target: T1, factor XII; assay: ELISA binding of β2GPI to immobilized factor XII; design: human factor XII from plasma (Calbiochem); purchased Calbiochem; host or cells: human plasma
Protocol: as §1

inhibition of 7H2H2 binding to amyloid γ-globulins (amyloid γ-globulins; 500 μM Congo red, diluted 7H2H2 cell culture medium)	Congo red concentrations that inhibit binding of 7H2H2 (amyloid γ-globulins; 7H2H2 from 10 times diluted culture medium)	inhibition of tPA binding to immobilized amyloid-β and glycated albumin [1]	influence on binding of tPA to immobilized misfolded protein [2]	influence on binding of IgIV to immobilized Hb-AGE [3]	inhibition of binding of anti-β2GPI auto-antibodies to immobilized β2GPI [4]	binding to tPA (tPA)	binding to factor XII (factor XII)	Molecule
approximately 66%	higher than 5 μM	effectively inhibited	inhibits binding of tPA	fully blocks IgIV binding	–	–	–	Nc1c(/N=N/c2ccc(-c3ccc(/N=N/c4cc(S(=O)(=O)O)c5ccccc5c4N)cc3)cc2)cc(S(=O)(=O)O)c2ccccc12 [Congo red]
–	–	not by ThT	promotes binding of tPA	enhance the binding of IgIV	–	–	–	Cc1ccc2c(c1)sc(-c1ccc(N(C)C)cc1)[n+]2C.[Cl-] [Thioflavin T]
–	–	–	–	–	has a minor effect on antibody binding	not bind	not bind	plasma β2GPI: β2-glycoprotein I purified from fresh human plasma (protein, UniProt P02749 20-345, looked up) Beta-2-glycoprotein 1: GRTCPKPDDLPFSTVVPLKTFYEPGEEITYSCKPGYVSRGGMRKFICPLTGLWPINTLKCTPRVCPFAGILENGAVRYTTFEYPNTISFSCNTGFYLNGADSAKCTEEGKWSPELPVCAPIICPPPSIPTFATLRVYKPSAGNNSLYRDTAVFECLPQHAMFGNDTITCTTHGNWTKLPECREVKCPFPSRPDNGFVNYPAKPTLYYKDKATFGCHDGYSLDGPEEIECTKLGNWSAMPSCKASCKVPVKKATVVYQGERVKIQEKFKNGMLHGDKVSFFCKNKEKKCSYTEDAQCIDGTIEVPKCFKEHSSLAFWKTDASDVKPC
